The text below walks through data of article PMC6754133 (PLoS ONE, 2019).

Like-named read-outs stand apart in the source and are kept apart here.

Experiment [1] addresses Carbonic anhydrase 1 (CAH1_HUMAN). As to conditions: S2/S3 Table; ref [2] Parkkila S et al., Bioorg Med Chem Lett. 2009; cited from earlier work.
The target of experiment [2] is Carbonic anhydrase 9 (CAH9_HUMAN). Conditions: S2/S3 Table; ref [2] Parkkila S et al., Bioorg Med Chem Lett. 2009; cited from earlier work.
Another experiment deals with MB-PDX xenograft. Nature of the experiment: Subcutaneous patient-derived medulloblastoma xenograft model, tumor volume. The class given is in vivo, mouse. Conditions: NSG mice, 40 mg/kg daily intraperitoneally from day 7, 42 days. For orientation: Xenograft models place foreign cells or tissue in a host animal.
The next experiment relates to DAOY cells. Nature of the experiment: cells. As to conditions: Homo sapiens, 72 h, read-out: Cell viability assay IC50.
Experiment [3] has as its target Abelson tyrosine-protein kinase 2 (ABL2_HUMAN). Conditions: S2/S3 Table; ref [1] Davis MI et al., Nat Biotechnol. 2011; cited from earlier work.
The subject of experiment [4] is Gli-1 mRNA in Math1-Cre; ptch1-flox/flox cells. As to the kind of experiment: qRT-PCR of Gli-1 mRNA in Math1-Cre; ptch1-flox/flox (PTCH -/-) cells treated ex vivo. The format is cell-based, mouse. As to conditions: 10 μM ex vivo, 24 hours. The protocol:
An in vivo medulloblastoma model was established as described before. Briefly, 6–7 weeks old NOD-scid IL-2Rg null (NSG) mice (the Jackson Laboratory) were anesthetized with xylazine-ketamine, and […]. Dissociated Math1-Cre; ptch1-flox/flox cells (1×10^6 cells in 4 μL HBSS)[58] were injected into the mouse brains using murine stereotaxic system (Stoelting Co). The coordinates were: 1.8mm to the right of bregma and 3mm deep from the dura. To disassociate the orthotopic tumor into the single cells for the serial implantation or the ex-vivo experiment, the tumor was dissected from the cerebellum, followed by digestion using Papain (10 U per mL), DNase (250 U) and L-cystein (2 mg) at 37°C for 30 min.
Both post-vivo MB-PDX cells and Math1-Cre; ptch1-flox/flox cells were analyzed for Gli-1 mRNA expression. For that, total RNA was extracted from dissociated single cells using QIAGEN RNease Mini Kit and cDNA was prepared using 1μg RNA with iScript cDNA Synthesis Kit (Bio-Rad). SYBR green-based QPCR was performed using murine primers listed as below (GLI1, Forward 5’- […]-3’, Reverse 5’-[…]-3’, GAPDH Forward 5'-[…] -3', Reverse 5'-[…]-3'). mRNA levels were normalized to GAPDH (dCt = Ct gene of interest–Ct GAPDH) and reported as relative mRNA expression (ddCt = 2-^(dCt sample–dCt control)) in fold change.
A general note: Real-time PCR tracks product formation cycle by cycle.

The test system of another experiment is Hh/SMO pathway. As to the kind of experiment: Gli-Luciferase functional assay, NIH 3T3 Gli-RE cells stimulated with ShhN. The format is cell-based. As to the method:
After 24 hours, when the cells reached confluency, the culture medium was replaced with 80 μL per well of assay medium [Optimem ± 10 mM HEPES ± 1 mM Sodium Pyruvate + 1× MEM NEAA]. […] Then the cells were stimulated by addition of either ShhN-conditioned media or control media (DMEM±10%BCS) at a final concentration of 10%. Following incubation of the plate for at least 28 hours at 37°C, the cells were simultaneously lysed and supplemented with a luciferase substrate by addition of equal volume of Steady-Glo reagent (Promega, E2520) directly to the assay media. Plates were mixed by pipetting, centrifuged to eliminate foam, incubated for 10 minutes, and analyzed using Perkin Elmer Viktor X luminescence plate reader. The results were analyzed using a non-linear regression (Prism 6, GraphPad Software, La Jolla, CA). Data were normalized to the maximal response observed for ShhN-stimulated cells in the same experiment. A sigmoidal-dose response curve was used as a model for data analysis and IC50 value calculation.

Protocol for MB-PDX xenograft: Tumor volumes were monitored three times a week in the course of treatment.
NSG mice, 4–6 weeks old, were injected subcutaneously at shoulders and flanks with 1 × 10^6 viable MB-PDX cells in 1:1 HBSS and gelatinous protein mixture Matrigel. […] The tumor size was measured three times a week with a caliper, and tumor volumes were calculated according to the formula (length × width × width × 0.5). At day 42 post-grafting, all mice were euthanized by isoflurane inhalation and cervical dislocation.

`Cc1cn(-c2cc(NC(=O)c3ccc(C)c(Nc4nccc(-c5cccnc5)n4)c3)cc(C(F)(F)F)c2)cn1` [Nilotinib]: the entries for the “Kd/Ki Value” in experiment [1], in experiment [2] and in experiment [3] were 0.0293 µM, 0.0419 µM and 0.026 µM, respectively. Further, the “Tumor volume versus vehicle-treated group” value in the experiment on MB-PDX xenograft is given as “significantly smaller tumors”. In addition, the IC50 in the experiment with DAOY cells worked out at 6 µM; in the experiment on Hh/SMO pathway (Mus musculus, NIH3T3, read-out: Hh/SMO pathway inhibition IC50, NIH3T3 Gli-RE cells, ShhN-conditioned media, n = 3), 0.374 µM; with Hh/SMO pathway (read-out: Hh/SMO pathway inhibition IC50, NIH3T3 Gli-RE cells, ShhN-conditioned media, n = 3) it was 0.374 µM. In experiment [4], the “Gli-1 mRNA expression versus vehicle treated cells” value is on record as “significant reduction in Gli-1 mRNA expression”. For the same molecule, the “Inhibition of ShhN-induced Hh signaling (in words)” value in the experiment with Hh/SMO pathway (NIH 3T3 Gli-RE cells, ShhN stimulated) is recorded as “inhibited ShhN-induced Hh signaling in a dose-dependent manner”. Further, the “Span of concentration response curve” value in the experiment with Hh/SMO pathway (data as percent of the maximum luminescence in the absence of antagonists, Fig 4) amounted to 95.05.
